Data published in US9290459B1, “Substituted bicyclic dihydropyrimidinones and their use as inhibitors of neutrophil elastase activity” (Boehringer Ingelheim International GmbH, priority 2013, dated 2016).
Values after ≈ are worked out from the molar mass of the structure shown. Values joined by “and” are separate entries in the source; they are usually repeats but may differ in a detail not shown here. Identical values can stand only once. Like-named read-outs stand apart in the source and are kept apart here.

Legend:
[1] = test system: Caco-2 cells; experiment: Drug transport across human Caco-2 cells; type: in vitro ADME; conditions: for PEAB / PEBA: Caco-2 monolayers, pH 7.2, 37° C.; for PEAB: apical-to-basal; for PEBA: basal-to-apical; for Efflux ratio: PEBA/PEAB, Caco-2
Description: (§1) Assay for Determination of Drug Transport Across Human Caco-2 Cells The assay provides information on the potential of a compound to pass the cell membrane, on the extent of oral absorption as well as on whether the compound is actively transported by uptake and/or efflux transporters. […] The compounds are assigned to permeability/absorption classes by comparison of the AB permeabilities with the AB permeabilities of reference compounds with known in vitro permeability and oral absorption in the human. Identical or similar permeabilities in both transport directions indicate passive permeation, vectorial permeability points to additional active transport mechanisms. […] Active transport is concentration-dependently saturable. Caco-2 cells (1-2*10^5 cells/cm^2 area) are seeded on filter inserts (Costar transwell polycarbonate or PET filters, 0.4 nm pore size) and cultured (DMEM) for 10 to 25 days. […] The transport solution (TL) is applied ici to the apical or basolateral donor side for measuring A-B or B-A permeability (3 filter replicates), respectively. The receiver side contains HTP-4 buffer supplemented with 2% BSA. […] Sampled receiver volumes are replaced with fresh receiver solution.

[2] = Drug transport across human Caco-2 cells; type: in vitro ADME; conditions: human; for Papp B→A at 10 µM / Papp A→B at 10 µM: Caco-2, pH 7.2, Caco-2 monolayers, pH 7.2, 37° C.; for Papp B→A at 10 µM: basal-to-apical, read-out: PEBA; for efflux ratio at 10 μM: Caco-2, pH 7.2, PEBA/PEAB, Caco-2; for Papp A→B at 10 µM: apical-to-basal, read-out: PEAB
Description: as §1

[3] = target: neutrophil elastase in human plasma (Homo sapiens (Human), UniProt P08246); experiment: Neutrophil elastase inhibitory activity in human plasma (zymosan-stimulated blood); type: biochemical
Description: Assay for the Determination of Neutrophil Elastase Inhibitory Activity in Human Plasma
Citrated blood from human healthy donors is mixed with zymosan suspension and incubated at room temperature. This leads to the stimulation of neutrophils and the release of neutrophil elastase into the plasma. The stimulated blood is centrifuged to generate the neutrophil elastase enriched plasma.
Various concentrations of the neutrophil elastase inhibitor are incubated with plasma. […] A dose response curve is generated to calculate the EC50 of the inhibitor.

[4] = target: Human neutrophil elastase (Homo sapiens (Human), UniProt P08246); experiment: Human Neutrophil Elastase Assay; type: biochemical; conditions: substrate MeOSuc-Ala-Ala-Pro-Val-AMC 250 μM, pH 7.5
[5] = Metabolic stability with human liver microsomes; type: in vitro ADME; conditions: for half-life at 1 μM: pH 7.6
[6] = Aqueous solubility; type: physicochemical; conditions: McIlvaine buffer pH 6.8, 2.5% DMSO, 24 h shaking; for solubility at 24 h: McIlvaine buffer pH 6.8 with 2.5% DMSO, pH 6.8, aqueous buffer, kinetic from dmso stock
Description: Assay for Determination of Aqueous Solubility […] After 24 h of shaking, the solutions or suspensions are filtered and analyzed by LC-UV. The amount dissolved in buffer is compared to the amount dissolved in the acetonitrile/water (1/1) solution.

[7] = test system: human hepatocytes; experiment: Metabolic stability with human hepatocytes; type: in vitro ADME; conditions: human hepatocyte suspension, 1 μM test compound, scaled with well stirred model
Description: Assay for the Determination of Metabolic Stability with Human Hepatocytes The metabolic degradation of the test compound is assayed in a human hepatocyte suspension. Human hepatocytes (typically cryopreserved) are incubated in an appropriate buffer system (e.g. […] Samples are transferred into acetonitrile and pelleted by centrifugation (5 min) The supernatant is transferred to a new 96-deepwell plate, evaporated under nitrogen and resuspended. The decline of parent compound is analyzed by LC-MS/MS.

[8] = target: cytochrome P450 2C8 (Homo sapiens (Human), UniProt P10632); experiment: Cytochrome P450 2C8 inhibition; type: in vitro ADME; conditions: human liver microsomes, Amodiaquine deethylation; read-out: CYP2C8 IC50
[9] = target: cytochrome P450 2C19 (Homo sapiens (Human), UniProt P33261); experiment: Cytochrome P450 2C19 inhibition; type: in vitro ADME; conditions: human liver microsomes, (S)-Mephenytoin hydroxylation; read-out: CYP2C19 IC50
[10] = target: cytochrome P450 2C9 (Homo sapiens (Human), UniProt P11712); experiment: Cytochrome P450 2C9 inhibition; type: in vitro ADME; conditions: human liver microsomes, Diclofenac hydroxylation; read-out: CYP2C9 IC50
[11] = pooled human liver microsomes, 1 mg/ml protein, 1 μM test compound, 37° C., NADPH
[12] = neutrophil elastase enriched human plasma from zymosan-stimulated blood, read-out: EC50
[13] = human neutrophil elastase, read-out: IC50

Sequence of cytochrome P450 2C8 (P10632 whole entry): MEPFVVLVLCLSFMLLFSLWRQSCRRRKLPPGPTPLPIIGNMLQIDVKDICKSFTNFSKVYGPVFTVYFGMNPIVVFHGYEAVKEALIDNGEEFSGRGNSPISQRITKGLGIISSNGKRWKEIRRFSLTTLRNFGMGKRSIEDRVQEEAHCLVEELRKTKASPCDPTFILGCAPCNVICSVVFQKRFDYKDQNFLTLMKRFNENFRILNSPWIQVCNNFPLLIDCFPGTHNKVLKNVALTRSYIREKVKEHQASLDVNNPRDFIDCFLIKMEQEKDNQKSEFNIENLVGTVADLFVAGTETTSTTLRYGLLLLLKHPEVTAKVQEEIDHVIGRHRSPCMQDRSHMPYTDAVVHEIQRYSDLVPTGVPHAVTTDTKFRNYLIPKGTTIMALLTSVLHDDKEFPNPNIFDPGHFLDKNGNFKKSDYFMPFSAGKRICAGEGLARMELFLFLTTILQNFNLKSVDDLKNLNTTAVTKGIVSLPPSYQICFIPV
Sequence of cytochrome P450 2C9 (P11712 whole entry): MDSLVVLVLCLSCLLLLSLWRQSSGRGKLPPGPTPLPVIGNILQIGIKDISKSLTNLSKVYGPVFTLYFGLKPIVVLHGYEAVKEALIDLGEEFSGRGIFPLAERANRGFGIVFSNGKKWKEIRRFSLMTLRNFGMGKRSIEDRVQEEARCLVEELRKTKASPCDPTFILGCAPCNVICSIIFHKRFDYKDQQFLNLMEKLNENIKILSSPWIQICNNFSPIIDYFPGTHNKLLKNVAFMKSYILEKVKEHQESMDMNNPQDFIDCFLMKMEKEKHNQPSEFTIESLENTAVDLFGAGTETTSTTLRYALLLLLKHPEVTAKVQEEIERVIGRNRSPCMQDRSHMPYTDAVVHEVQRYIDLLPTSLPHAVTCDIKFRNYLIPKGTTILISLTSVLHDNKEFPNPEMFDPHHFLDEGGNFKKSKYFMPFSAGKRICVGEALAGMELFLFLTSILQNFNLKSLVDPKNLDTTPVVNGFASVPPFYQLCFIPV
Sequence of neutrophil elastase in human plasma (P08246 30-247): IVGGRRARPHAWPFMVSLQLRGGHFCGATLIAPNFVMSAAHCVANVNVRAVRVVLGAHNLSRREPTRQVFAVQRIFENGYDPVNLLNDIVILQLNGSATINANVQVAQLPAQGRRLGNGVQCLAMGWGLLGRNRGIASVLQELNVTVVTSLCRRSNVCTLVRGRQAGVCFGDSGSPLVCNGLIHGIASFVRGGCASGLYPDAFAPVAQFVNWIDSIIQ
Sequence of Human neutrophil elastase (P08246 30-247): as above
Sequence of cytochrome P450 2C19 (P33261 whole entry): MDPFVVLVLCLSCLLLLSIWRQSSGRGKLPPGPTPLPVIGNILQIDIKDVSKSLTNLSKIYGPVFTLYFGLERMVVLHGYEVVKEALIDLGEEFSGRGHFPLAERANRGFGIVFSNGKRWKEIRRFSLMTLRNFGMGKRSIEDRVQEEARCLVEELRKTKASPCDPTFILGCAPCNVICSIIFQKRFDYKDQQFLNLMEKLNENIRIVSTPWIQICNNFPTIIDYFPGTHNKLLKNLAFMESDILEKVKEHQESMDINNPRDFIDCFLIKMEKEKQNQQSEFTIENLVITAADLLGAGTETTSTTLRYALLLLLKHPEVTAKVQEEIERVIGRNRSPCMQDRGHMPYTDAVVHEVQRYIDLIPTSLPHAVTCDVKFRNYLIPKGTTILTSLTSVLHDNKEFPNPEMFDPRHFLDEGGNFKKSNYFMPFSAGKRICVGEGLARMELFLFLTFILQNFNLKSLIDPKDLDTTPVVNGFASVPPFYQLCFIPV

SMILES	PEAB [1] [cm/s]	Papp B→A at 10 µM [2] [×10⁻⁶ cm/s]	efflux ratio at 10 μM [2]	EC50 ([3]; EC50, neutrophil elastase enriched human plasma from zymosan-stimulated blood) [nM]	IC50 ([4]; IC50, human neutrophil elastase) [nM]	half-life at 1 μM ([5]; pooled human liver microsomes, 1 mg/ml protein, 1 μM test compound, 37° C., NADPH, read-out: t1/2 INVITRO) [min]	solubility at 24 h [6] [µg/mL]	PEBA [1]	Efflux ratio [1]	t1/2 INVITRO [5, 11] [min]	CL (predicted human hepatic in vivo blood clearance) [7] [mL/min/kg]	Aqueous solubility [6]	Papp A→B at 10 µM [2] [×10⁻⁶ cm/s]	IC50 [8] [µM]	EC50 [3, 12] [nM]	IC50 [4, 13] [nM]	half-life at 1 μM ([5]; human, microsomes) [min]	IC50 [9] [µM]	IC50 [10] [µM]
CN1C(=O)N(c2cccc(C(F)(F)F)c2)C2=C(C(=O)CC2)C1c1ccc(C#N)cc1[S+](C)[O-] (single isomer, unassigned) [Example 30B, 4-(3-Methyl-2,5-dioxo-1-(3-(trifluoromethyl)phenyl)-2,3,4,5,6,7-hexahydro-1H-cyclopenta[d]pyrimidin-4-yl)-3-(methylsulfinyl)benzonitrile]	0.000012	71.4	5.9	2	2	> 130	65 (≈ 137 µM)	–	–	–	–	–	–	–	–	–	–	–	–
CC(C)(O)CCNC(=O)N1C(=O)N(c2cccc(C(F)(F)F)c2)C2=C(C(=O)CC2)C1c1ccc(C#N)cc1 (stereo not shown) [Example 41.17]	0.0000234	–	–	–	–	–	–	0.0000807 cm/s	3.5	>130	3	0.054 mg/mL	–	–	–	–	–	–	–
CCNC(=O)N1C(=O)N(c2cccc(C(F)(F)F)c2)C2=C(C(=O)CC2)[C@H]1c1ccc(C#N)cc1S(C)(=O)=O [Example 47.2]	–	84.5	–	–	–	–	45 (≈ 82.3 µM)	–	–	–	1	–	12.8	> 50	< 1	< 1	> 130	> 50	> 50
CS(=O)(=O)N1C(=O)N(c2cccc(C(F)(F)F)c2)C2=C(C(=O)CC2)[C@H]1c1ccc(C#N)cc1 [Example 9A, (R)-4-(3-(Methylsulfonyl)-2,5-dioxo-1-(3-(trifluoromethyl)phenyl)-2,3,4,5,6,7-hexahydro-1H-cyclopenta[d]pyrimidin-4-yl)benzonitrile]	–	73	1.7	–	–	–	–	–	–	–	0	–	43.9	> 50	2	3	> 130	> 50	> 50
C[C@H](O)CNC(=O)N1C(=O)N(c2cccc(C(F)(F)F)c2)C2=C(C(=O)CC2)C1c1ccc(C#N)cc1 (stereo partly shown) [Example 41.1]	–	–	–	–	–	–	–	0.0000729 cm/s and 0.0000903 cm/s	8.9 and 4.8	>130	2	0.097 mg/mL and 0.073 mg/mL	–	–	–	–	–	–	–
CC(C)(O)CNC(=O)N1C(=O)N(c2cccc(C(F)(F)F)c2)C2=C(C(=O)CC2)[C@H]1c1ccc(C#N)cc1 [Example 41A, (R)-4-(4-Cyanophenyl)-N-(2-hydroxy-2-methylpropyl)-2,5-dioxo-1-(3-(trifluoro-methyl)phenyl)-4,5,6,7-tetrahydro-1H-cyclopenta[d]pyrimidine-3(2H)-carboxamide]	–	75.1	6.8	–	–	–	79 (≈ 154 µM)	–	–	–	0	–	11.1	> 50	< 1	< 1	> 130	> 50	> 50
C[C@H](CO)NC(=O)N1C(=O)N(c2cccc(C(F)(F)F)c2)C2=C(C(=O)CC2)C1c1ccc(C#N)cc1 (stereo partly shown) [Example 41.4]	0.00000941	–	–	–	–	–	–	0.0000815 cm/s	8.7	>130	5	0.092 mg/mL	–	–	–	–	–	–	–
N#Cc1ccc(C2C3=C(CCC3=O)N(c3cccc(C(F)(F)F)c3)C(=O)N2C(=O)NCCCO)cc1 (stereo not shown) [Example 7.3]	0.00000949	–	–	–	–	–	–	0.0000671 cm/s	7.1	>130	7	0.072 mg/mL	–	–	–	–	–	–	–
